Laboratory results from the NIST ThermoML archive (doi:10.1021/je030223f).
Values joined by “and” are separate entries in the source; they are usually repeats but may differ in a detail not shown here. Identical values can stand only once.

Conditions: Liquid, Calculated from knudsen effusion weight loss

[Br-].[Br-].[Br-].[Tm+3] [thulium tribromide]
Conditions | vapor or sublimation pressure
921 K | 0.0001148 kPa
924 K | 0.0001259 kPa
927 K | 0.0001349 kPa
931 K | 0.0002042 kPa
937 K | 0.0002042 kPa
938 K | 0.0002188 kPa and 0.0002754 kPa
942 K | 0.0002291 kPa
947 K | 0.000309 kPa and 0.0004074 kPa
949 K | 0.0003467 kPa
952 K | 0.0004074 kPa
953 K | 0.0003631 kPa
956 K | 0.0004571 kPa
958 K | 0.0005888 kPa
961 K | 0.0005012 kPa
964 K | 0.0006607 kPa
965 K | 0.0006607 kPa
967 K | 0.0007762 kPa
968 K | 0.000631 kPa
971 K | 0.0007244 kPa
974 K | 0.0009772 kPa
976 K | 0.000912 kPa
978 K | 0.001096 kPa
980 K | 0.0009772 kPa
984 K | 0.001318 kPa
987 K | 0.001288 kPa
988 K | 0.001514 kPa and 0.001349 kPa
990 K | 0.001445 kPa
995 K | 0.001622 kPa
999 K | 0.002399 kPa
1000 K | 0.001995 kPa
1001 K | 0.002239 kPa
1004 K | 0.00257 kPa and 0.002291 kPa
1006 K | 0.002692 kPa
1007 K | 0.002455 kPa
1009 K | 0.003236 kPa and 0.002951 kPa
1013 K | 0.003236 kPa and 0.004074 kPa
1015 K | 0.003467 kPa and 0.003162 kPa
1019 K | 0.003548 kPa
1020 K | 0.004571 kPa and 0.004677 kPa
1022 K | 0.00537 kPa
1024 K | 0.004365 kPa
1025 K | 0.004677 kPa
1026 K | 0.004786 kPa
1027 K | 0.004571 kPa
1028 K | 0.005623 kPa
1030 K | 0.005623 kPa
1033 K | 0.005495 kPa
1035 K | 0.006607 kPa
1037 K | 0.005754 kPa
1038 K | 0.007762 kPa
1039 K | 0.006918 kPa
1042 K | 0.006607 kPa
1043 K | 0.008511 kPa
1046 K | 0.00955 kPa
1048 K | 0.01288 kPa
1050 K | 0.00955 kPa
1056 K | 0.01349 kPa
1061 K | 0.01445 kPa
1063 K | 0.01318 kPa
1066 K | 0.01995 kPa
1070 K | 0.01995 kPa
1073 K | 0.02754 kPa
1076 K | 0.02512 kPa
1080 K | 0.0263 kPa
1088 K | 0.03388 kPa
1089 K | 0.04074 kPa
1092 K | 0.03467 kPa
1096 K | 0.04266 kPa
1103 K | 0.04677 kPa
1105 K | 0.06457 kPa
1107 K | 0.06166 kPa
1116 K | 0.06761 kPa
1118 K | 0.07943 kPa
1123 K | 0.09772 kPa
1127 K | 0.1047 kPa and 0.09333 kPa
1135 K | 0.1288 kPa
1136 K | 0.1349 kPa
1143 K | 0.166 kPa
1155 K | 0.2138 kPa

[I][Tm]([I])[I] [thulium triiodide]
Conditions | vapor or sublimation pressure
887 K | 0.0001318 kPa
888 K | 7.763e-05 kPa
897 K | 0.0001585 kPa
899 K | 0.0001175 kPa
902 K | 0.0002089 kPa
905 K | 0.0002344 kPa and 0.0001698 kPa
906 K | 0.0002291 kPa and 0.0001585 kPa
907 K | 0.0002089 kPa
909 K | 0.0001585 kPa
911 K | 0.0002884 kPa
912 K | 0.0003162 kPa and 0.0002089 kPa
914 K | 0.000309 kPa and 0.0002344 kPa
916 K | 0.0002884 kPa and 0.0002089 kPa
920 K | 0.0004467 kPa and 0.0004571 kPa
921 K | 0.0003715 kPa
922 K | 0.0003162 kPa
923 K | 0.0003388 kPa
925 K | 0.0004169 kPa and 0.0002884 kPa
928 K | 0.0005012 kPa
930 K | 0.000631 kPa and 0.0006607 kPa
931 K | 0.0004169 kPa
932 K | 0.000537 kPa and 0.0004677 kPa
933 K | 0.000389 kPa
936 K | 0.0006607 kPa
938 K | 0.0008318 kPa and 0.0005495 kPa
939 K | 0.0007079 kPa and 0.000912 kPa
940 K | 0.0005248 kPa
941 K | 0.0006607 kPa
946 K | 0.000955 kPa and 0.001122 kPa
947 K | 0.0007586 kPa
948 K | 0.001148 kPa and 0.000955 kPa
949 K | 0.0007244 kPa
951 K | 0.0009772 kPa
953 K | 0.001148 kPa
954 K | 0.001479 kPa
955 K | 0.001318 kPa and 0.001047 kPa
956 K | 0.001585 kPa and 0.0009333 kPa
959 K | 0.00182 kPa
960 K | 0.001288 kPa
961 K | 0.001445 kPa and 0.001905 kPa
963 K | 0.001738 kPa and 0.001349 kPa
964 K | 0.00123 kPa
966 K | 0.002089 kPa and 0.002291 kPa and 0.001585 kPa
968 K | 0.002754 kPa
969 K | 0.001862 kPa
970 K | 0.002512 kPa
971 K | 0.002344 kPa and 0.001585 kPa
973 K | 0.00257 kPa and 0.001862 kPa
975 K | 0.002512 kPa
976 K | 0.003631 kPa and 0.002951 kPa and 0.002138 kPa
978 K | 0.003388 kPa
980 K | 0.00309 kPa and 0.002042 kPa
981 K | 0.002818 kPa and 0.002399 kPa
983 K | 0.004365 kPa
984 K | 0.002754 kPa
987 K | 0.004571 kPa
988 K | 0.00389 kPa
989 K | 0.002818 kPa and 0.00309 kPa
991 K | 0.005495 kPa and 0.005012 kPa
993 K | 0.003548 kPa
999 K | 0.007079 kPa and 0.00631 kPa
1002 K | 0.004898 kPa
1006 K | 0.009333 kPa
1008 K | 0.00871 kPa
1014 K | 0.01122 kPa
1017 K | 0.01148 kPa
1024 K | 0.01514 kPa
1025 K | 0.01445 kPa
1032 K | 0.01995 kPa
1034 K | 0.0195 kPa
1043 K | 0.02818 kPa and 0.0257 kPa
1051 K | 0.03715 kPa and 0.03311 kPa
